From article PMC3433276 (Bioorganic & medicinal chemistry letters, 2012) come the findings set out here.

One may read the IC50 as the point on the concentration scale where inhibition reaches its midpoint. A high value points to a need for much substance. What is called EC50 is the concentration at which the effect is half-maximal.

In experiment [1] the test system is panel of multidrug-resistant HIV-1 strains. Briefly: microbe, parasite or virus in culture. The experiment is classed as cell-based. Particulars: for fold-changes in EC50: against all MDR HIV-1 viruses compared to wild type.
The subject of experiment [2] is HIV-1LAI. Briefly: Antiviral MTT assay in MT-2 cells exposed to HIV-1LAI. The experiment is classed as cell-based. Particulars: Human immunodeficiency virus 1, MT2. Background: Tetrazolium dyes change colour on reduction, which living cells bring about.

Take `COC(=O)N[C@@H]1CO[C@@H]2C[C@H](OC(=O)N[C@@H](Cc3ccccc3)[C@H](O)CN(CC(C)C)S(=O)(=O)c3ccc(OC)cc3)C[C@H]12` [Inhibitor 3c]: in experiment [1], the “fold-changes in EC50” value is reported as less than 3.
Take `CC(C)CN(C[C@@H](O)[C@H](Cc1ccccc1)NC(=O)O[C@H]1CCOC1)S(=O)(=O)c1ccc(N)cc1` [amprenavir]: half-maximal inhibition in experiment [2] (IC50) was put at 30 nM.
With `COC(=O)N[C@H]1CO[C@@H]2C[C@H](OC(=O)N[C@@H](Cc3ccccc3)[C@H](O)CN(CC(C)C)S(=O)(=O)c3ccc(OC)cc3)C[C@H]12` [Inhibitor 3d], in experiment [1] (Human immunodeficiency virus 1), the EC50 was 15 to 24 nM. In addition, the “fold-changes in EC50” value in experiment [1] is “increased by a factor of at least three”.
